Laboratory results as given in patent US10000474B2, “Histone deacetylase inhibitors and uses thereof” (MUSC FOUNDATION FOR RESEARCH DEVELOPMENT, priority 2014, dated 2018).

Tests used:
Format in all cases: biochemical
Conditions in all cases: test concentration not given; average of triplicate
Recombinant human HDAC11 = target: T1, Recombinant human HDAC11 (Homo sapiens, UniProt Q96DB2); test: HDAC inhibitory assay, HDAC11 (Boc-Lys(Tfa)-AMC substrate)
T1 construct: purchased BPS Biosciences
T1 sequence (Q96DB2 1-347): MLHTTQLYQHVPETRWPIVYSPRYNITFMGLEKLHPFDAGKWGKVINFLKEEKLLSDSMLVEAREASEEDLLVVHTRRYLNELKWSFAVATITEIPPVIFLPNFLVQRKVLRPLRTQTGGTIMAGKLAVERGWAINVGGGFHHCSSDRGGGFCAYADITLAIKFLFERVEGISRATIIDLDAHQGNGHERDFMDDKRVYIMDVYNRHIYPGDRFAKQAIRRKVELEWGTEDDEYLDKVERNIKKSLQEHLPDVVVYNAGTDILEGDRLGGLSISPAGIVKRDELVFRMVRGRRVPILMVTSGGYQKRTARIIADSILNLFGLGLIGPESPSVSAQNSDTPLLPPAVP
Method: (§1) The compounds of Examples 1-12 and 14-16 were evaluated for their ability to act as inhibitors of human HDAC. The compound of Example 13 was not tested. Recombinant human HDAC1, HDAC2, HDAC3/NcoR2, HDAC5, HDAC6, HDAC8, HDAC9, HDAC10 and HDAC11 were purchased from BPS Biosciences. Recombinant human HDAC4 and HDAC7 were purchased from Millipore. The substrate Boc-Lys(Ac)-AMC and Boc-Lys(Tfa)-AMC were purchased from Bachem. The substrate Ac-RHK(Ac)K(Ac)-AMC was purchased from Enzo Life Sciences. Due to the different specific activities of each isoform, different amount of enzyme was used in each isoform screening assay. In these assays, trichostatin A (TSA), suberanilohydroxamic acid and diphenylacetohydroxamic acid (DPAHA) were employed as positive controls. All determinations were carried out in triplicate, and reported values were the average of these determinations, which in no case varied by more than 5%.
(§2) For evaluating the inhibition of class IIa HDACs (HDAC4, HDAC5, HDAC7 and HDAC9) and class IV HDAC (HDAC11), 10 μl of test samples were first incubated with 1 ng HDAC4 (specific activity=15400 pmol/min/μg), 5 ng HDAC5 (specific activity=2521 pmol/min/μg), 1 ng HDAC7 (specific activity=26340 pmol/min/μg), 5 ng HDAC9 (specific activity=3000 pmol/min/μg), and 500 ng HDAC11 (specific activity=1.8 pmol/min/μg) respectively. Then 25 μl of the Boc-Lys(Tfa)-AMC substrate (50 μM final concentration) was added and incubated at 37° C. for 30-60 min, and followed by adding 50 μl of developer. The last step was to read the samples in a SpectraMax M5 plate reader (Molecular Devices) at an excitation wavelength of 360 nm and an emission wavelength of 460 nm.

Recombinant human HDAC1 = target: T2, Recombinant human HDAC1 (Homo sapiens, UniProt Q13547); test: HDAC inhibitory assay, HDAC1 (Boc-Lys(Ac)-AMC substrate)
T2 construct: purchased BPS Biosciences
T2 sequence (Q13547 whole entry): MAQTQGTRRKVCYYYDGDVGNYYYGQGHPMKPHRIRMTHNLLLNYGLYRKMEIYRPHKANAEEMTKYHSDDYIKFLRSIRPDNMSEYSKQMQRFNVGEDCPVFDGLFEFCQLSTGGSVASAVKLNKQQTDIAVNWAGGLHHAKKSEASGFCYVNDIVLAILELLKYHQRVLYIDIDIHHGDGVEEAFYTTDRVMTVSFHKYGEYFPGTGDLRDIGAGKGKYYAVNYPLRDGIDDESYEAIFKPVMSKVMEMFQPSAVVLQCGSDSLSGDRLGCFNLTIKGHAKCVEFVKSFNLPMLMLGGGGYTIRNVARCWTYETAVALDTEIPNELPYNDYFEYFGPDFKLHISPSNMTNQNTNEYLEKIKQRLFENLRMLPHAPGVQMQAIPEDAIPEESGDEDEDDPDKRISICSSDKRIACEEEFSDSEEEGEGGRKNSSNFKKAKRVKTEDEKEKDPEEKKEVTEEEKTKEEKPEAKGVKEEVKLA
Method: as §1
(§3) Then 25 μl of the Boc-Lys(Ac)-AMC substrate (50 μM final concentration) was added and incubated at 37° C. for 30-60 min, and followed by adding 50 μl of developer (1 mg/ml trypsin and 1 μM TSA). The last step was reading the samples in a SpectraMax M5 plate reader (Molecular Devices) at an excitation wavelength of 360 nm and an emission wavelength of 460 nm.

Recombinant human HDAC4 = target: T3, Recombinant human HDAC4 (Homo sapiens, UniProt P56524); test: HDAC inhibitory assay, HDAC4 (Boc-Lys(Tfa)-AMC substrate)
T3 construct: purchased Millipore
T3 sequence (P56524 whole entry): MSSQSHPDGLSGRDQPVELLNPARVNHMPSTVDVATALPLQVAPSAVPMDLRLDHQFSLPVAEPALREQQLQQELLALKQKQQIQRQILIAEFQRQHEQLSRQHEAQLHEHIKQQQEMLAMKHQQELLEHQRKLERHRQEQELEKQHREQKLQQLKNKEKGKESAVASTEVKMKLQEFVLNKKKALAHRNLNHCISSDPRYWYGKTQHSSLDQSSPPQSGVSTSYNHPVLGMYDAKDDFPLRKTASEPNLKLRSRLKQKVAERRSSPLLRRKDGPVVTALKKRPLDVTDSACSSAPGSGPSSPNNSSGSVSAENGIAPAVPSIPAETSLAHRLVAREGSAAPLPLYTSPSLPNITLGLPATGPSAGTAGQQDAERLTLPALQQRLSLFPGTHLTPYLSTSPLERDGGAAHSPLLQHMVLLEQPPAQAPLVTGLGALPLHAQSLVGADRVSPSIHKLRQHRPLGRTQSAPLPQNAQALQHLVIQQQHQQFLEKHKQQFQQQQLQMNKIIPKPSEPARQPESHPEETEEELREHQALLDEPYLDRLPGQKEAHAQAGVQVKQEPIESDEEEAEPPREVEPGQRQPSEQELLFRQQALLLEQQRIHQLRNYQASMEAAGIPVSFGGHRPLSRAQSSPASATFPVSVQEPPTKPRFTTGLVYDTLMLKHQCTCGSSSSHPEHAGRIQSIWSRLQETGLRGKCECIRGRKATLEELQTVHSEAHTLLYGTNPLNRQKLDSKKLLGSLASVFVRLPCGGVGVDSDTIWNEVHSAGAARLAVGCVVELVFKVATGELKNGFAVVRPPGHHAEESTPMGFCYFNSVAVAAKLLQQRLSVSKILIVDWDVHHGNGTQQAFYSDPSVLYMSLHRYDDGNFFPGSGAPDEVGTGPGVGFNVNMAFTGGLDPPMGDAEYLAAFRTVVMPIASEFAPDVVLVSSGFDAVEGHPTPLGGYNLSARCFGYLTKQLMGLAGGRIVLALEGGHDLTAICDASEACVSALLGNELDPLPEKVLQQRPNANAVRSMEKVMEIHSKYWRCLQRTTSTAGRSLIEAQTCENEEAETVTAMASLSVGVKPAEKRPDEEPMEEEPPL
Method: as §1, §2

[1] = target: T4, Recombinant human HDAC3/NcoR2 (Homo sapiens, UniProt O15379); test: HDAC inhibitory assay, HDAC3 (Boc-Lys(Ac)-AMC substrate)
T4 construct: purchased BPS Biosciences
T4 sequence (O15379 whole entry): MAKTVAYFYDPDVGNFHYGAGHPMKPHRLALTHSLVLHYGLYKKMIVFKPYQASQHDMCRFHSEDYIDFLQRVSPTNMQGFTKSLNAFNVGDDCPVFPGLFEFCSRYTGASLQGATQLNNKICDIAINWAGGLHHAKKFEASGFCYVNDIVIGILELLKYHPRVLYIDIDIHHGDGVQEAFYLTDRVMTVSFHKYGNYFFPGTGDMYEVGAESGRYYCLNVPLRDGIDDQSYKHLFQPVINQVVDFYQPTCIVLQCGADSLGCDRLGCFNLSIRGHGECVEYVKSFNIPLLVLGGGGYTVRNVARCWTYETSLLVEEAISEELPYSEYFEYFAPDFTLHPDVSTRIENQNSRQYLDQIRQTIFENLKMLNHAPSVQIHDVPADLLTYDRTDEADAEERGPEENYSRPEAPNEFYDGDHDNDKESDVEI
T4 sequence (Q9Y618 395-489 partner limits assumed): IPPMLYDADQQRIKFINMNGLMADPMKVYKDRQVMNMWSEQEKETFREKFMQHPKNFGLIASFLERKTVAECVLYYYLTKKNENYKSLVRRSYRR
Method: as §1, §3

Recombinant human HDAC7 = target: T5, Recombinant human HDAC7 (Homo sapiens, UniProt Q8WUI4); test: HDAC inhibitory assay, HDAC7 (Boc-Lys(Tfa)-AMC substrate)
T5 construct: purchased Millipore
T5 sequence (Q8WUI4 1-952): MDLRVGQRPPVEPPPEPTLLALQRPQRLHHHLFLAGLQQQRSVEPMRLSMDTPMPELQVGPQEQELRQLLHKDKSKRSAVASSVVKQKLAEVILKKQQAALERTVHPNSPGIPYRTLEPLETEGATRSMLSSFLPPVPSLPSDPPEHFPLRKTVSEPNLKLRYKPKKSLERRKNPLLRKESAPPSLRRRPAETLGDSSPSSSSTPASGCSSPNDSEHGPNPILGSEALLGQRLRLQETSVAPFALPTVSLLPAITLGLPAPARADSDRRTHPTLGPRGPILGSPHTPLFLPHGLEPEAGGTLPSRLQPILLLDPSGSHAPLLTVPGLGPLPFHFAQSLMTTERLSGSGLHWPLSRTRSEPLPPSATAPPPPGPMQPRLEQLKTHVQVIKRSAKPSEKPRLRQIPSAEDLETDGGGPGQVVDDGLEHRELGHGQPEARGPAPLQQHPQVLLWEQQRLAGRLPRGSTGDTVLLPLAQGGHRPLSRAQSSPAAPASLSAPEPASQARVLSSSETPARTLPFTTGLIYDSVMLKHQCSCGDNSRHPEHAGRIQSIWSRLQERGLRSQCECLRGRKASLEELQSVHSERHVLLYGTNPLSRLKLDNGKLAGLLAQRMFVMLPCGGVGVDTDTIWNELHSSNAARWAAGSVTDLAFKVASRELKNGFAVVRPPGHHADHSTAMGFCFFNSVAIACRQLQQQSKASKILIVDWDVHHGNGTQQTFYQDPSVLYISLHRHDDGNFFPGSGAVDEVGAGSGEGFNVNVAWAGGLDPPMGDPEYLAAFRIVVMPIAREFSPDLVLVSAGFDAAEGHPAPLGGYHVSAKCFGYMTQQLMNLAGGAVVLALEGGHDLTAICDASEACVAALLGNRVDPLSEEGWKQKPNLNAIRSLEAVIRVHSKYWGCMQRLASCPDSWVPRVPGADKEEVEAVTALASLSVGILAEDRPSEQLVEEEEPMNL
Method: as §1, §2

Recombinant human HDAC2 = target: T6, Recombinant human HDAC2 (Homo sapiens, UniProt Q92769); test: HDAC inhibitory assay, HDAC2 (Boc-Lys(Ac)-AMC substrate)
T6 construct: purchased BPS Biosciences
T6 sequence (Q92769 whole entry): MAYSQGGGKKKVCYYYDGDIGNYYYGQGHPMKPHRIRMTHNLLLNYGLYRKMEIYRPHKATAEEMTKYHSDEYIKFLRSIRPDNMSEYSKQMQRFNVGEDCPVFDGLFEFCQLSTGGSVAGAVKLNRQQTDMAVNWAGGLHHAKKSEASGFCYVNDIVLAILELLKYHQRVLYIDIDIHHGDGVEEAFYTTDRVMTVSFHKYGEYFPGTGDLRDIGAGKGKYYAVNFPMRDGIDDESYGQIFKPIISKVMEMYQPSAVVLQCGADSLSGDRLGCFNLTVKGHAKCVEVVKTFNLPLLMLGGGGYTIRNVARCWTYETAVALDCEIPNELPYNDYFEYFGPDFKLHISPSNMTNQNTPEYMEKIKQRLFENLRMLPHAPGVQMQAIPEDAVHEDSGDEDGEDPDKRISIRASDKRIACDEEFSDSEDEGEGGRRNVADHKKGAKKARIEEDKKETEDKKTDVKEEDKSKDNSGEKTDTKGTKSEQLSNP
Method: as §1, §3

Compound: O=C(CNC(=O)c1coc(-c2ccccc2O)n1)Nc1ccccc1 [Example 16, 2-(2-Hydroxyphenyl)-N-(2-oxo-2-(phenylamino)ethyl)oxazole-4-carboxamide]
- HDAC 11 inhibitory activity (Recombinant human HDAC11): 46.6%
- HDAC 1 inhibitory activity (Recombinant human HDAC1): 25.5%
- HDAC 4 inhibitory activity (Recombinant human HDAC4): 28.1%
- HDAC 3 inhibitory activity [1]: 36.9%
- HDAC 7 inhibitory activity (Recombinant human HDAC7): 0%
- HDAC 2 inhibitory activity (Recombinant human HDAC2): 32.0%
